# Measurements published in PubChem BioAssay (NCI).
#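 Briefly, cells in 96-well plates were exposed to five compound concentrations for 48 h, and endpoints were estimated by linear interpolation. Abbreviation: GI50, concentration required for 50% inhibition of growth. At the TGI there is no net growth.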
# System: SNB-19 CNS
# Experiment: inhibition of tumour cell growth, NCI panel, 48 h
Structure (SMILES),GI50 [µM],TGI [µM]
CNCCOC(=O)/C=C1\CC[C@H]2[C@@H]([C@@H](O)C(=O)[C@@H]3[C@]2(C)CC[C@H](O)[C@]3(C)C(=O)OC)[C@H]1C,0.668,1.99
Cc1nnc(Nc2ccc(NC(=O)Nc3ccc(Cl)cc3)cc2)c2ccccc12,2.77,8.72
CC(=O)ON1CCCC(P(=O)(OCCSC(=O)C(C)(C)C)OCCSC(=O)C(C)(C)C)C1=O (stereo not given),1.76,21.9
NS(=O)(=O)c1ccc(N=Nc2c(O)c(C(=O)O)cc3ccccc23)cc1,,> 90.3
Cc1c(N(C)C)ccc2c(=O)c3cccc(CC(=O)O)c3oc12,,> 69
CC(NCCC(c1ccccc1)c1ccccc1)c1ccccc1 (stereo not given),1.56,3.44
O=C(Nc1ccc(Br)cc1F)c1cc(Cl)ccc1O,0.418,> 100
NC(N)=N/N=C/c1c(Cl)cccc1Cl,37.7,> 100
S=c1[nH]c(=S)c2cc3ccccc3nc2[nH]1,35.5,> 100
CCC[CH2][Sn]([CH2]CCC)([O]C(=O)c1ccc(OC)c(OC)c1OC)[O][Sn]([CH2]CCC)([CH2]CCC)[O]C(=O)c1ccc(OC)c(OC)c1OC,0.285,0.635

# System: HCT-116 colon
# Experiment: inhibition of tumour cell growth, NCI panel, 48 h
Structure (SMILES),GI50 [µM],TGI [µM]
CNCCOC(=O)/C=C1\CC[C@H]2[C@@H]([C@@H](O)C(=O)[C@@H]3[C@]2(C)CC[C@H](O)[C@]3(C)C(=O)OC)[C@H]1C,0.294,1.03
Cc1nnc(Nc2ccc(NC(=O)Nc3ccc(Cl)cc3)cc2)c2ccccc12,1.86,3.59
CC(=O)ON1CCCC(P(=O)(OCCSC(=O)C(C)(C)C)OCCSC(=O)C(C)(C)C)C1=O (stereo not given),0.613,12.7
NS(=O)(=O)c1ccc(N=Nc2c(O)c(C(=O)O)cc3ccccc23)cc1,,> 100
Cc1c(N(C)C)ccc2c(=O)c3cccc(CC(=O)O)c3oc12,,> 100
CC(NCCC(c1ccccc1)c1ccccc1)c1ccccc1 (stereo not given),1.66,3.08
O=C(Nc1ccc(Br)cc1F)c1cc(Cl)ccc1O,0.522,2.45
NC(N)=N/N=C/c1c(Cl)cccc1Cl,17.2,36.1
S=c1[nH]c(=S)c2cc3ccccc3nc2[nH]1,69.8,> 100
CCC[CH2][Sn]([CH2]CCC)([O]C(=O)c1ccc(OC)c(OC)c1OC)[O][Sn]([CH2]CCC)([CH2]CCC)[O]C(=O)c1ccc(OC)c(OC)c1OC,0.276,0.833

# System: RXF 393 renal
# Experiment: inhibition of tumour cell growth, NCI panel, 48 h
Structure (SMILES),GI50 [µM],TGI [µM]
CNCCOC(=O)/C=C1\CC[C@H]2[C@@H]([C@@H](O)C(=O)[C@@H]3[C@]2(C)CC[C@H](O)[C@]3(C)C(=O)OC)[C@H]1C,0.205,0.579
Cc1nnc(Nc2ccc(NC(=O)Nc3ccc(Cl)cc3)cc2)c2ccccc12,2.17,4.13
CC(=O)ON1CCCC(P(=O)(OCCSC(=O)C(C)(C)C)OCCSC(=O)C(C)(C)C)C1=O (stereo not given),0.764,7.02
NS(=O)(=O)c1ccc(N=Nc2c(O)c(C(=O)O)cc3ccccc23)cc1,,> 100
Cc1c(N(C)C)ccc2c(=O)c3cccc(CC(=O)O)c3oc12,,> 100
CC(NCCC(c1ccccc1)c1ccccc1)c1ccccc1 (stereo not given),1.46,3.23
O=C(Nc1ccc(Br)cc1F)c1cc(Cl)ccc1O,0.852,3.99
NC(N)=N/N=C/c1c(Cl)cccc1Cl,15.5,35.8
S=c1[nH]c(=S)c2cc3ccccc3nc2[nH]1,> 100,> 100
CCC[CH2][Sn]([CH2]CCC)([O]C(=O)c1ccc(OC)c(OC)c1OC)[O][Sn]([CH2]CCC)([CH2]CCC)[O]C(=O)c1ccc(OC)c(OC)c1OC,0.153,0.38

# System: OVCAR-5 ovarian
# Experiment: inhibition of tumour cell growth, NCI panel, 48 h
Structure (SMILES),GI50 [µM],TGI [µM]
CNCCOC(=O)/C=C1\CC[C@H]2[C@@H]([C@@H](O)C(=O)[C@@H]3[C@]2(C)CC[C@H](O)[C@]3(C)C(=O)OC)[C@H]1C,1.18,2.68
Cc1nnc(Nc2ccc(NC(=O)Nc3ccc(Cl)cc3)cc2)c2ccccc12,2.1,4.99
CC(=O)ON1CCCC(P(=O)(OCCSC(=O)C(C)(C)C)OCCSC(=O)C(C)(C)C)C1=O (stereo not given),6.46,> 100
NS(=O)(=O)c1ccc(N=Nc2c(O)c(C(=O)O)cc3ccccc23)cc1,,> 100
Cc1c(N(C)C)ccc2c(=O)c3cccc(CC(=O)O)c3oc12,,> 100
CC(NCCC(c1ccccc1)c1ccccc1)c1ccccc1 (stereo not given),2.88,11.4
O=C(Nc1ccc(Br)cc1F)c1cc(Cl)ccc1O,3.67,> 100
NC(N)=N/N=C/c1c(Cl)cccc1Cl,22.4,79.8
S=c1[nH]c(=S)c2cc3ccccc3nc2[nH]1,> 100,> 100
CCC[CH2][Sn]([CH2]CCC)([O]C(=O)c1ccc(OC)c(OC)c1OC)[O][Sn]([CH2]CCC)([CH2]CCC)[O]C(=O)c1ccc(OC)c(OC)c1OC,1.52,2.85

# System: PC-3 prostate
# Experiment: inhibition of tumour cell growth, NCI panel, 48 h
Structure (SMILES),GI50 [µM],TGI [µM]
CNCCOC(=O)/C=C1\CC[C@H]2[C@@H]([C@@H](O)C(=O)[C@@H]3[C@]2(C)CC[C@H](O)[C@]3(C)C(=O)OC)[C@H]1C,0.369,2.34
Cc1nnc(Nc2ccc(NC(=O)Nc3ccc(Cl)cc3)cc2)c2ccccc12,3.49,11.9
CC(=O)ON1CCCC(P(=O)(OCCSC(=O)C(C)(C)C)OCCSC(=O)C(C)(C)C)C1=O (stereo not given),3.51,> 100
NS(=O)(=O)c1ccc(N=Nc2c(O)c(C(=O)O)cc3ccccc23)cc1,,> 100
Cc1c(N(C)C)ccc2c(=O)c3cccc(CC(=O)O)c3oc12,,> 100
CC(NCCC(c1ccccc1)c1ccccc1)c1ccccc1 (stereo not given),2.1,6.96
O=C(Nc1ccc(Br)cc1F)c1cc(Cl)ccc1O,1.87,6.68
NC(N)=N/N=C/c1c(Cl)cccc1Cl,31,> 100
S=c1[nH]c(=S)c2cc3ccccc3nc2[nH]1,4.74,> 100
CCC[CH2][Sn]([CH2]CCC)([O]C(=O)c1ccc(OC)c(OC)c1OC)[O][Sn]([CH2]CCC)([CH2]CCC)[O]C(=O)c1ccc(OC)c(OC)c1OC,1.2,2.46
